The results in this text go back to ChEMBL document CHEMBL5576127, “New CDDO Arylboronate Ester Derivatives with High Selectivity and Low Toxicity” (J Med Chem, 2024).

pIC50: −log10 of the molar value.

Series [1] can be described thus: Cytotoxicity against human MCF-10A cells assessed as inhibition of cell proliferation incubated for 48 hrs by MTT assay. The series is classed as toxicity, cell-based.
Series [2] concerns BGC-823. The experiment in a line: Antiproliferative activity against human BGC-823 cells assessed as inhibition of cell proliferation incubated for 48 hrs by MTT assay. As to conditions: BGC-823, 48 h. The series is classed as functional, cell-based.
A short description of series [3]: Cytotoxicity against human L02 cells assessed as inhibition of cell proliferation incubated for 48 hrs by MTT assay. The series is classed as toxicity, cell-based. (Formazan colour is commonly taken as a measure of viable cells.)
Series [4] deals with HepG2. As to the kind of experiment: Antiproliferative activity against human HepG2 cells assessed as inhibition of cell proliferation incubated for 48 hrs by MTT assay. The class given is functional, cell-based. The conditions noted are these: HepG2, 48 h.
Series [5] can be described thus: Cytotoxicity against human GES1 cells assessed as inhibition of cell proliferation incubated for 48 hrs by MTT assay. The series is classed as toxicity, cell-based.
For series [6], the system named is MCF7. The experiment in a line: Antiproliferative activity against human MCF7 cells assessed as inhibition of cell proliferation incubated for 48 hrs by MTT assay. The series is classed as functional, cell-based. As to conditions: MCF7, 48 h.
For series [7], the system named is SGC-7901. The experiment in a line: Antiproliferative activity against human SGC-7901 cells assessed as inhibition of cell proliferation incubated for 48 hrs by MTT assay. The series is classed as functional, cell-based. As to conditions: SGC-7901, 48 h.
Series [8] deals with BGC-823. The experiment in a line: Antiproliferative activity against human BGC-823 cells assessed as inhibition of cell proliferation preincubated with H2O2 for 2 hrs followed by compound addition and measured after 48 hrs by MTT assay. The class given is functional, cell-based.
Series [9] deals with MGC-803. As to the kind of experiment: Antiproliferative activity against human MGC-803 cells assessed as inhibition of cell proliferation incubated for 48 hrs by MTT assay. The series is classed as functional, cell-based. The conditions noted are these: MGC-803, 48 h.
Series [10] relates to NCI-N87. As to the kind of experiment: Antiproliferative activity against human NCI-N87 cells assessed as inhibition of cell proliferation incubated for 48 hrs by MTT assay. The class given is functional, cell-based. The conditions noted are these: NCI-N87, 48 h.
Series [11] can be described thus: Selectivity index, ratio of IC50 for cytotoxicity against human GES1 cells to IC50 for antiproliferative activity against human BGC-823 cells in presence of H2O2. The class given is toxicity, cell-based. As to conditions: GES1 cells and BGC-823 cells, read-out: Ratio IC50.

Turning to `COc1ccc(/C=C/CC(=O)OCCCOC(=O)[C@]23CCC(C)(C)C[C@H]2[C@H]2C(=O)C=C4[C@@]5(C)C=C(C#N)C(=O)C(C)(C)[C@@H]5CC[C@@]4(C)[C@]2(C)CC3)cc1OCc1ccc(B2OC(C)(C)C(C)(C)O2)cc1`, the IC50 at 48 h stood at 4 µM in series [1], 5 µM in series [3] and 6.6 µM in series [5]. The results for the pIC50 in series [2], in [4] and in [6] were 5.26, 5.44 and 5.46, respectively.

Turning to `CC1(C)CC[C@]2(C(=O)OCCCCCCOC(=O)c3ccc(OCc4ccc(B5OC(C)(C)C(C)(C)O5)cc4)cc3)CC[C@]3(C)[C@H](C(=O)C=C4[C@@]5(C)C=C(C#N)C(=O)C(C)(C)[C@@H]5CC[C@]43C)[C@@H]2C1`, the IC50 at 48 h in [1] worked out at 3.3 µM; in series [3], 6.4 µM; in series [5], 4.7 µM. Further, the pIC50 is 5.49 in series [2], 4.19 in series [4] and 5.62 in series [6].

For `CC1(C)CC[C@]2(C(=O)OCCCOc3ccc(NC(=O)OCc4ccc(B5OC(C)(C)C(C)(C)O5)cc4)cc3)CC[C@]3(C)[C@H](C(=O)C=C4[C@@]5(C)C=C(C#N)C(=O)C(C)(C)[C@@H]5CC[C@]43C)[C@@H]2C1`, the IC50 at 48 h is 1.8 µM in series [1], 3.5 µM in series [3] and 1.5 µM in series [5]. For the same compound, the pIC50 in [2] is 5.92; in series [4], 5.55; in [6], 5.96.

Regarding `CC1(C)CC[C@]2(C(=O)OCCCCCOC(=O)c3ccc(OCc4ccc(B5OC(C)(C)C(C)(C)O5)cc4)cc3)CC[C@]3(C)[C@H](C(=O)C=C4[C@@]5(C)C=C(C#N)C(=O)C(C)(C)[C@@H]5CC[C@]43C)[C@@H]2C1`, the IC50 at 48 h in series [1] was determined as 3.1 µM; in [3] it was 3.5 µM; in series [5], 2.8 µM. Also, the pIC50 is 5.68 in series [2], 5.55 in series [4] and 5.80 in [6].

With `CC1(C)CC[C@]2(C(=O)OCCOC(=O)c3ccc(OCc4ccc(B5OC(C)(C)C(C)(C)O5)cc4)cc3)CC[C@]3(C)[C@H](C(=O)C=C4[C@@]5(C)C=C(C#N)C(=O)C(C)(C)[C@@H]5CC[C@]43C)[C@@H]2C1`, the IC50 at 48 h turned out to be 4 µM in series [1], 5 µM in [3] and 4.7 µM in [5]. Also, the pIC50 in [2] is 5.42; in [4], 5.44; in series [6] it was 5.54.

Take `CC1(C)CC[C@]2(C(=O)OCCCOC(=O)Cc3ccc(OCc4ccc(B5OC(C)(C)C(C)(C)O5)cc4)cc3)CC[C@]3(C)[C@H](C(=O)C=C4[C@@]5(C)C=C(C#N)C(=O)C(C)(C)[C@@H]5CC[C@]43C)[C@@H]2C1`: the IC50 at 48 h in [1] worked out at 2.5 µM; in series [3], 4.1 µM; in series [5], 2.2 µM. Moreover, the pIC50 in series [2] is 5.80; in [4], 5.60; in series [6], 5.85.

Take `COc1cc(/C=C/CC(=O)OCCCOC(=O)[C@]23CCC(C)(C)C[C@H]2[C@H]2C(=O)C=C4[C@@]5(C)C=C(C#N)C(=O)C(C)(C)[C@@H]5CC[C@@]4(C)[C@]2(C)CC3)ccc1OCc1ccc(B2OC(C)(C)C(C)(C)O2)cc1`: the IC50 at 48 h in series [1] was 2.4 µM; in [3] it was 5.6 µM; in [5], 4.2 µM. Further, the pIC50 in series [2] is 5.64; in [4], 5.26; in series [6], 4.54.

In the case of `COc1cc(C(=O)OCCCCOC(=O)[C@]23CCC(C)(C)C[C@H]2[C@H]2C(=O)C=C4[C@@]5(C)C=C(C#N)C(=O)C(C)(C)[C@@H]5CC[C@@]4(C)[C@]2(C)CC3)cc(OC)c1OCc1ccc(B2OC(C)(C)C(C)(C)O2)cc1`, the figures for the IC50 at 48 h in series [1], in series [3] and in series [5] were 4 µM, 6.1 µM and 4.2 µM, respectively. Also, the pIC50 in [2] is 5.46; in series [4] it was 5.27; in series [6] it was 5.46.

For `CC1(C)CC[C@]2(C(=O)OCCCCCOc3ccc(NC(=O)OCc4ccc(B5OC(C)(C)C(C)(C)O5)cc4)cc3)CC[C@]3(C)[C@H](C(=O)C=C4[C@@]5(C)C=C(C#N)C(=O)C(C)(C)[C@@H]5CC[C@]43C)[C@@H]2C1`, the IC50 at 48 h in series [1] is 5.9 µM; in [3], 4.9 µM; in series [5], 3 µM. Also, the pIC50 in [7] was 5.51; in series [8] it was 6.10; in series [2], 5.85; in series [9], 5.57; in [4], 5.41; in series [10], 5.80. In series [6], the negative-log IC50 (pIC50) is 5.57. Also, in series [11], the selectivity ratio amounted to 3.75.

For `CC1(C)CC[C@]2(C(=O)OCCCOC(=O)C/C=C/c3ccc(OCc4ccc(B5OC(C)(C)C(C)(C)O5)cc4)cc3)CC[C@]3(C)[C@H](C(=O)C=C4[C@@]5(C)C=C(C#N)C(=O)C(C)(C)[C@@H]5CC[C@]43C)[C@@H]2C1`, the IC50 at 48 h in series [1] is 18.3 µM; in [3], 3.3 µM; in series [5], 6.9 µM. Further, the pIC50 in series [2] was 5.06; in series [4] it was 5.19; in series [6] it was 5.00.

For the compound `COc1cc(C(=O)OCCCCOC(=O)[C@]23CCC(C)(C)C[C@H]2[C@H]2C(=O)C=C4[C@@]5(C)C=C(C#N)C(=O)C(C)(C)[C@@H]5CC[C@@]4(C)[C@]2(C)CC3)ccc1OCc1ccc(B2OC(C)(C)C(C)(C)O2)cc1`, the IC50 at 48 h was 12.4 µM in [1], 15.6 µM in series [3] and 9.2 µM in series [5]. The pIC50 in series [2] was 5.08; in series [4], 4.81; in series [6], 4.89.

On to `CC1(C)CC[C@]2(C(=O)OCCc3ccc(OCc4ccc(B5OC(C)(C)C(C)(C)O5)cc4)cc3)CC[C@]3(C)[C@H](C(=O)C=C4[C@@]5(C)C=C(C#N)C(=O)C(C)(C)[C@@H]5CC[C@]43C)[C@@H]2C1`, for which the IC50 at 48 h in series [1] was 1.7 µM; in series [3] it was 2.1 µM; in series [5] it was 0.8 µM. The pIC50 in series [2] was 6.15; in series [4] it was 5.70; in series [6], 6.00.

For the compound `CC1(C)CC[C@]2(C(=O)OCCCOC(=O)c3ccc(OCc4ccc(B5OC(C)(C)C(C)(C)O5)cc4)cc3)CC[C@]3(C)[C@H](C(=O)C=C4[C@@]5(C)C=C(C#N)C(=O)C(C)(C)[C@@H]5CC[C@]43C)[C@@H]2C1`, the IC50 at 48 h turned out to be 3.1 µM in series [1], 3.6 µM in series [3] and 2.7 µM in series [5]. Besides, the pIC50 in series [2] was 5.70; in series [4] it was 5.52; in series [6], 5.82.

The IC50 is the concentration that inhibits the measured activity by half. In general, pIC50 refers to the IC50 on a negative log10 scale, so that one unit is a factor of ten.
